# Experimental data from patent US20150031890A1, “PHARMACEUTICAL COMPOSITION COMPRISING BICYCLIC PYRIDINOL DERIVATIVES FOR PREVENTING OR TREATING DISEASES CAUSED BY ANGIOGENESIS” (Research Cooperation Foundation of Yeungnam University, priority 2011, published 2015).
# Tests used:
# [1] = tested on: neovascularization induced by VEGF in chicken chorioallantoic membrane (CAM); test: chorioallantoic membrane (CAM) assay, VEGF-induced angiogenesis; assay type: in vivo
# Experimental: To examine angiogenesis inhibitory effects in vivo, a chorioallantoic membrane (CAM) assay was carried out (Nguyen M et al., Microvascular Res., 47, pp 31-40, 1994).
# Fertilized chicken eggs were cultured keeping the temperature at 37° C. and the relative humidity at 55%. On the tenth day, the first small hole was made in the region of air sac and the second hole was dug in the flat region of egg, where a window was to be made, using a hypodermic needle (Greencross Medical Science, Korea).
# Each egg was deflated through the first hole in the region of the air sac so that the chorioallantoic membrane (CAM) was split from the egg shell. Subsequently, a window was made by cutting this region using a grinding wheel (Multipro 395JA, Dremel, Mexico).
# Then, a whatman filter disc #1 (Whatman Inc. USA) was treated with 3 mg/ml of cortisone acetate and dried. The filter disc was drenched with a vascular endothelial growth factor (VEGF) in a concentration of 20 ng/CAM.
# The filter disc was put on the vessels through the previously made window, and a compound 12 of Example was dissolved in dimethylsulfoxide (DMSO) and diluted with phosphate buffered saline (PBS) to treat by concentrations.
# After 3 days from the drug treatment, the CAMs, on which the filter disc was placed, were separated and washed with PBS to take images using a stereomicroscope (Stemi SV6 stereomicroscope, Carl Zeiss, Germany) and Image-Pro Plus software (Media Cybernetics; Silver Spring, Md., USA). Then, the number of branches was counted and the result data were analyzed.
# HUVEC cells [2] = test: chemostatic migration / infiltration inhibitory effect in HUVEC cells; assay type: cell-based, human; settings: 1, 3, 10 μM, 24 hours, matrigel/collagen coated filter (FIG. 4)
# Experimental: In order to examine a chemostatic migration inhibitory effect of the compound of the present invention, the following in vitro experiment was carried out using HUVEC cells (Mi-Sung Kim et al., Cancer Research, 63, 5454-5461, 2003; Sang-Oh Yoon et al., The Journal of Biological Chemistry, 276, 20085-20092, 2001; Sonia Zorzet et al., The Journal of Pharmacology and Experimental Therapeutics, 295, 927-933, 2000). A culture plate applied hereto was a 24-well plate (Corning Costar, Cambridge, Mass.) including a polycarbonate filter having a plurality of pores of […] in size. The bottom side of the polycarbonate filter was coated with 20 l of type I collagen in a concentration of 0.5 mg/ml, and the top side thereof was coated with 20 l of matrigel (BD Bioscience, Bedford, Mass.) in a concentration of 1.5 mg/ml. Here, the lower region of the polycarbonate filter was filled with a medium including 2% FBS, and the HUVEC cells were inoculated into the upper region of the polycarbonate filter. In this case, the compound 12 was dissolved in dimethyl sulfoxide (DMSO) and diluted with phosphate buffered saline (PBS) by concentrations (1, 3, 10 μM). The HUVEC cells inoculated as such were cultured at 37° C. for 24 hours. Subsequently, the cells infiltrating the bottom side of the polycarbonate filter were fixed with methanol and stained with hematoxylin and eosin. […]
# [3] = tested on: adult retinal pigment epithelium (ARPE)-19 cell line; test: ROS scavenging effect in ARPE-19 cell line (4-HNE or angiotensin II); assay type: cell-based, human
# Experimental: (§1) In order to measure an ROS scavenging effect in HUVEC cells induced by a VEGF, 2′,7′-dichlorofluorescein diacetate (DCF-DA) was used. […] The HUVEC cells were injected into 8-well plates coated with 0.2% gelatin in a density of 1×10^5 cells/well and then cultured for 24 hours. A pre-treatment was carried out to the compound 12 for 3 hours and induced by the VEGF for 15 minutes and washed with PBS (pH 7.4) three times. Then, 10 μM DCF-DA was put into an EBM-2 and used to treat in darkroom for 30 minutes, and then washed again with the PBS three times. A fluorescence degree of the cells was measured using a fluorescence microscope. FIG. 5 provides photomicrographs taken at a magnification of 400 times of cells in order to check an ROS scavenging effect of the compound 12 of the present invention. […] FIG. 6 and FIG. 7 illustrate an observation result of the ROS scavenging effect of the compound 12 by treating the adult retinal pigment epithelium (ARPE)-19 cell line with 4-hydroxynonenal (4-HNE) or angiotensin II, which is a risk factor of macular degeneration. […] The 4-hydroxynonenal (4-HNE) or angiotensin II, which is a risk factor of macular degeneration caused cell damage by generation of ROS in ARPE cell and caused damage of a Bruch's membrane and angiogenesis, resulting in macular degeneration and loss of eyesight.
# HUVEC cells [4] = test: ROS scavenging effect in VEGF-induced HUVEC cells (DCF-DA); assay type: cell-based, human; settings: 3 hours pre-treatment, VEGF 15 minutes, compared with the VEGF (FIG. 5)
# Experimental: as §1
# HUVEC cells [5] = test: VEGF-induced growth inhibitory effect in HUVEC cells (MTT); assay type: cell-based, human; settings: 24 hours, MTT (FIG. 3)
# Experimental: HUVEC cells were cultured in a flask coated with 0.2% gelatin. Then, the HUVEC cells were cultured in an endothelial cell basal medium-2 (EBM-2, Clonetics, San Diego, Calif.). This EBM-2 contained fetal bovine serum (FBS), hydrocortisone, a human basic fibroblast growth factor (hFGF-B), a vascular endothelial growth factor (VEGF), a human recombinant insulin-like growth factor (R3-IGF-1), ascorbic acid, a human epidermal growth factor (hEGF), GA-1000, and heparin. The HUVEC cells were cultured for 4 to 5 days and injected into a 24-well plate in a density of 5×10^4 cells/well, and the media of the respective wells were set at 1 ml. In order to test the effect of the compound 12 in endothelial cells induced by the VEGF, the HUVEC cells were treated with a mixture of the VEGF and the compound 12 and cultured for 24 hours, and, then, 100 μl of MTT 3-(4,5-dimethylthiazol-2-yl)-2,5-diphenyl tetrazolium bromide; 5 g MTT/l in H2O) was added thereto and further cultured for 4 hours. Then, 200 μl of dimethylsulfoxide (DMSO) was added to the respective wells containing the corresponding cells and mixed with a pipette to dissolve the reduced MTT crystals. Relative cell survival rates were measured by scanning with a microplate reader (Molecular Devices, Menlo Park, Calif.) having 540 nm filter.
# A549 lung cancer cells = test: angiogenesis caused by tumorigenesis and tumor growth, A549 cells inoculated to CAM; assay type: in vivo, chicken; settings: A549 cells 1.5×10^6 cells/CAM, 5 days after inoculation (FIG. 8)
# Experimental: FIG. 8 illustrates an observation result of angiogenesis caused by tumorigenesis by inoculating A549 lung cancer cells to a CAM and a tumor growth inhibitory effect. Fertilized chicken eggs were cultured, and on the ninth day, a window was made in the same manner, and instead of a disc, cancer cells were mixed with matrigel at a ratio of 1:1 and treated with the compound 12 and inoculated in a density of 1.5×10^6 cells/CAM. After 5 days from the inoculation, a CAM portion, in which tumor was formed, was separated and washed with PBS to take images using a stereomicroscope (Stemi SV6 stereomicroscope, Carl Zeiss, Germany) and Image-Pro Plus software (Media Cybernetics; Silver Spring, Md., USA). Then, the number of branches was counted and the result data were analyzed.
# [6] = single oral dose toxicity experiment in mice; assay type: in vivo; settings: single oral dose 0.5, 1 and 2 g/kg, 7 days
# Experimental: The compound 12 was suspended in a 0.5% methyl cellulose solution and orally administered to male Balb/c mice with a single dose of 0.5 g/kg, 1 g/kg, and 2 g/kg. Then, the survival rate and weights of the mice were checked for 7 days.
# After the administration, whether the animal was dead or not, clinical symptoms, changes in weight were observed, and a hematological test and a blood chemical test were carried out.
# [7] = VEGF 20 ng/CAM + 1 μg/CAM, 3 days after treatment
# [8] = VEGF 20 ng/CAM + 3 ng/CAM, 0.7 μM
# [9] = VEGF 20 ng/CAM + 100 ng/CAM, 23 μM
compound,measurement,setting,value
CNC(=O)[C@H](Cc1ccccc1)NC(=O)[C@H](CC(C)C)[C@H](CSc1cccs1)C(=O)NO [Batimastat],Inhibition rate (%),[1]; [7],78.4 ± 7.4%
same,Number of branches/Main vessel,[1]; [7],19.9 ± 2.87
Cc1nc2c(c(C)c1O)CC(C)(CCC[C@H](C)CCC[C@H](C)CCCC(C)C)N2C (stereo partly shown) [Compound 12],increase in neovascularization induced by the VEGF,"[1]; CAM, VEGF 20 ng/CAM",decreased in a concentration-dependent manner
same,inhibition at 0.001 µM,"[1]; Gallus gallus, VEGF 20 ng/CAM + 0.004 ng/CAM, 1 nM, read-out: Inhibition rate (%)",64 ± 12.5%
same,inhibition at 0.01 µM,"[1]; Gallus gallus, VEGF 20 ng/CAM + 0.04 ng/CAM, 10 nM, read-out: Inhibition rate (%)",71.4 ± 6.4%
same,IC50,"[1]; Gallus gallus, VEGF-induced angiogenesis, treated by concentrations (FIG. 2)",0.7 nM
same,Number of branches/Main vessel,"[1]; VEGF 20 ng/CAM + 0.004 ng/CAM, 1 nM",28 ± 4.7
same,Number of branches/Main vessel,"[1]; VEGF 20 ng/CAM + 0.04 ng/CAM, 10 nM",25.2 ± 2.4
same,infiltration of the HUVEC cells,HUVEC cells [2],reduced infiltration of the HUVEC cells in a concentration-dependent manner
same,fluorescence degree of the cells (ROS),"[3]; ARPE-19 treated with 4-hydroxynonenal (4-HNE), compared with control group (FIG. 7)",remarkably decreased as compared with the control group
same,fluorescence degree of the cells (ROS),"[3]; ARPE-19 treated with angiotensin II, compared with control group (FIG. 6)",remarkably decreased as compared with the control group
same,"fluorescence degree of the cells (ROS, DCF-DA)",HUVEC cells [4],remarkably decreased as compared with the VEGF
same,VEGF-induced cell growth,HUVEC cells [5],reduced VEGF-induced cell growth in a concentration-dependent manner
same,angiogenesis caused by tumorigenesis,A549 lung cancer cells,inhibited angiogenesis caused by tumorigenesis
same,tumor growth,A549 lung cancer cells,inhibited tumor growth in a significantly low concentration as compared with α-tocopherol
same,clinical symptoms,[6],any especially remarkable clinical symptoms were not observed
CN(C)c1ccc(/C=C2\C(=O)Nc3ccccc32)cc1 [SU4312],Inhibition rate (%),[1]; [7],74.6 ± 12.1%
same,Number of branches/Main vessel,[1]; [7],24 ± 4.6
Cc1c(C)c2c(c(C)c1O)CC[C@@](C)(CCC[C@H](C)CCC[C@H](C)CCCC(C)C)O2 [α-tocopherol],Inhibition rate (%),[1]; [8],45.1 ± 9.3%
same,Number of branches/Main vessel,[1]; [8],32.3 ± 3.5
same,Inhibition rate (%),[1]; [9],64.4 ± 14.2%
same,Number of branches/Main vessel,[1]; [9],24.3 ± 2.7
